In PMC6934184, “Selective DNA-PKcs inhibition extends the therapeutic index of localized radiotherapy and chemotherapy” (The Journal of Clinical Investigation, 2019) one finds inhibition data, which are given here for 1 compound.

The experiment addresses T1, CAMKK1 (CAMKKA) (Homo sapiens, UniProt Q8N5S9).
T1 construct: purchased Thermo Fisher Scientific (Life Technologies) SelectScreen
Nature of the experiment: SelectScreen LanthaScreen. The experiment is classed as binding. The settings on record: read-out: % displacement. The procedure, abridged:
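NU5455 was profiled across the SelectScreen Broad panel of kinase activity and binding assays. Z'LYTE reactions such as CSF1R ran at apparent Km ATP, while the Adapta CAMK1 assay used ATP listed as 10. Values are given as percent.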

T1 sequence (Q8N5S9 whole entry): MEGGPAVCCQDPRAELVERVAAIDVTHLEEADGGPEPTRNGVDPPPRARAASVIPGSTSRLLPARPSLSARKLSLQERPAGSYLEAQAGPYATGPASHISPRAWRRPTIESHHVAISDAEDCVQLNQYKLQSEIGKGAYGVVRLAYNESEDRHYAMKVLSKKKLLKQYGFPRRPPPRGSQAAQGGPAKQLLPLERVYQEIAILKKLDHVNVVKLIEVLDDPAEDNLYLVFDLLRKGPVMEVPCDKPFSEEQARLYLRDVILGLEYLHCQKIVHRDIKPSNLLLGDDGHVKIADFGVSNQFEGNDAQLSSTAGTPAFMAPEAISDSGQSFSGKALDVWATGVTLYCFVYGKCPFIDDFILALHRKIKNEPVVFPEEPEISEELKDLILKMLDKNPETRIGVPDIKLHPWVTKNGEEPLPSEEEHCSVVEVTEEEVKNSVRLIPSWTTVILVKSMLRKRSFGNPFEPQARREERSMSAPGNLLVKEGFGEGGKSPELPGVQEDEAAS

Consider `CN(C(=O)CN1CCOCC1)c1ccc2sc3c(-c4cccc5c(=O)cc(N6CC7CCC(C6)O7)oc45)cccc3c2c1` [NU5455], for which the inhibition at 1 µM is -3.8%.
